Some results are limits rather than exact numbers.

The target in the test is T1, Kir3.1/3.4 (Rattus norvegicus, UniProt P48548+P63251).
T1 construct: expressed in transfected cells
T1 sequence (P63251 1-501): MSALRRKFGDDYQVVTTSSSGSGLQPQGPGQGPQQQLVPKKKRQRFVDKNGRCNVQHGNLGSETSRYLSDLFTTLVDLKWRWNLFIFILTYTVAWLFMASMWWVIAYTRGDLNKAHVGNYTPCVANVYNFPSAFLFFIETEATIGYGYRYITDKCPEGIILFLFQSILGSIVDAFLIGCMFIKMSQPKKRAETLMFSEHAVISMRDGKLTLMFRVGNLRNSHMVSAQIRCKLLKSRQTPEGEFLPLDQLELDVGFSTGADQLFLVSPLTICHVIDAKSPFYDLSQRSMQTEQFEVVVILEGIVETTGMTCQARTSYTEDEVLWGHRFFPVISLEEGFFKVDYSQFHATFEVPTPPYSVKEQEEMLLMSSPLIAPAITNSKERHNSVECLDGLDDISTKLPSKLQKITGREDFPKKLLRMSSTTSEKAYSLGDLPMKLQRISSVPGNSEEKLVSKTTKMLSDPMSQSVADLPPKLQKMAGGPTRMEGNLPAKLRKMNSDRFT
T1 sequence (P48548 1-419): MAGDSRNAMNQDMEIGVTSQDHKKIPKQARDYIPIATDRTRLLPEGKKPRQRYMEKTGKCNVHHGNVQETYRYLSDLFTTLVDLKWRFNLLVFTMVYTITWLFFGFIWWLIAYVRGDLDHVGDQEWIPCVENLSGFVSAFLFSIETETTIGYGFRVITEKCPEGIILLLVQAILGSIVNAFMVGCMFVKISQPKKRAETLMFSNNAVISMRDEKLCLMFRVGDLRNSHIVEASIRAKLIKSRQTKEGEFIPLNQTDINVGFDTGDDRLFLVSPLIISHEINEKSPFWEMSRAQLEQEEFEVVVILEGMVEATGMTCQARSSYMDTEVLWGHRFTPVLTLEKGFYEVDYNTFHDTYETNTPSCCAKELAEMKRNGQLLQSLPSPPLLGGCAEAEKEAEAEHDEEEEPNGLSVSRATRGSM
Briefly: Kir3.1/3.4 Q-patch Method (automated patch clamp, Sophion Q-patch). In kind it is cell-based. The following applies: HEK293 cells stably-expressing Kir3.1/3.4; current at -120 mV; QPatch-16 or QPatch-48. The procedure: For automated patch-clamp studies using the Sophion Q-patch, accumulative concentration-responses experiments were conducted to determine compound activity against the ion channel target. Voltage-clamp experiments were performed using HEK293 cells stably-expressing Kir3.1/3.4 using either a QPatch-16 or QPatch-48 (Sophion Bioscience A/S). A voltage waveform (VHold−20 mV, step to 60 mV for 100 ms, ramp to −120 mV over 500 ms, hold at −120 mV for 100 ms before returning to VHold) was repeatedly applied to the cells under voltage-clamp at a frequency of 0.1 Hz to elicit Kir3.1/3.4 currents. Mean current at −120 mV was measured in the absence (Icontrol) and presence of drug (IDrug). Assessment of passive leak was performed by removal of external potassium (IZero). Leak current was subtracted from control and drug recordings. Current inhibition (%) was calculated as {1−[(IDrug−IZero)/(IControl−IZero)]}*100. Data were fitted with a sigmoidal function to yield an IC50 and Hill coefficient. Composition of external experimental buffer was (in mM): 40 NaCl, 100 KCl, 5 CaCl2, 1 MgCl2, 10 HEPES pH 7.4. Composition of internal solution was (in mM). 40 K-gluconate, 60 KF, 20 NaCl, 5 Mg-ATP, 0.9 GTPgS, 20 EGTA, pH 7.2. Compounds were formulated in DMSO and diluted in buffer to give a final drug concentration of between […] and a final DMSO concentration of 0.1-0.3%.
In turn, `COC1CC2CCC(C1)N2c1nc(N2CCCC(C(N)=O)C2)c2c(-c3ccccc3Cl)csc2n1` (centres unmarked) [Example 374, 1-[5-(2-chlorophenyl)-2-(3-methoxy-8-azabicyclo[3.2.1]octan-8-yl)thieno[2,3-d]pyrimidin-4-yl]piperidine-3-carboxamide] displayed an IC50 below 0.5 µM.

As for `COCC1CC2CCC(C1)N2c1nc(C#N)nc2scc(-c3ccccc3OC)c12` (centres unmarked) [Example 406, 4-[3-(methoxymethyl)-8-azabicyclo[3.2.1]octan-8-yl]-5-(2-methoxyphenyl)thieno[2,3-d]pyrimidine-2-carbonitrile], the IC50 was below 0.5 µM.

Turning to `NC(=O)C1CCCN(c2nc(N3C4CCC3CC(CO)C4)nc3scc(-c4ccccc4Cl)c23)C1` (centres unmarked) [Example 393, 1-[5-(2-chlorophenyl)-2-[3-(hydroxymethyl)-8-azabicyclo[3.2.1]octan-8-yl]thieno[2,3-d]pyrimidin-4-yl]piperidine-3-carboxamide], the concentration for half-maximal inhibition (IC50) is below 0.5 µM.

Turning to `COc1ccccc1-c1csc2nc(N3CCC(O)C3)nc(N3C4CCC3COC4)c12` (centres unmarked) [Example 404, 1-[5-(2-methoxyphenyl)-4-(3-oxa-8-azabicyclo[3.2.1]octan-8-yl)thieno[2,3-d]pyrimidin-2-yl]pyrrolidin-3-ol], the half-maximal inhibitory concentration (IC50) is below 0.5 µM.

The compound `NC(=O)C1CCCN(c2nc(N3C4CCC3COC4)nc3scc(-c4ccccc4Cl)c23)C1` (centres unmarked) [Example 411, 1-[5-(2-chlorophenyl)-2-(3-oxa-8-azabicyclo[3.2.1]octan-8-yl)thieno[2,3-d]pyrimidin-4-yl]piperidine-3-carboxamide] came in with an IC50 of 0.5 to 3 µM.

`OC1CC2CCC(C1)N2c1nc(N2C3CCC2COC3)c2c(-c3ccccc3Cl)csc2n1` (centres unmarked) [Example 421, 8-[5-(2-chlorophenyl)-4-(3-oxa-8-azabicyclo[3.2.1]octan-8-yl)thieno[2,3-d]pyrimidin-2-yl]-8-azabicyclo[3.2.1]octan-3-ol]: the IC50 is below 0.5 µM.

Regarding `COc1ccccc1-c1csc2nc(N3C4CCC3CC(O)C4)nc(N3CCC(C(N)=O)C3)c12` (centres unmarked) [Example 414, 1-[2-(3-hydroxy-8-azabicyclo[3.2.1]octan-8-yl)-5-(2-methoxyphenyl)thieno[2,3-d]pyrimidin-4-yl]pyrrolidine-3-carboxamide], the IC50 fell in the range of 0.5 to 3 µM.

As for `COc1ccccc1-c1csc2nc(N3C4CCC3COC4)nc(N3C4CCC3COC4)c12` [Example 402, 8-[5-(2-methoxyphenyl)-2-(3-oxa-8-azabicyclo[3.2.1]octan-8-yl)thieno[2,3-d]pyrimidin-4-yl]-3-oxa-8-azabicyclo[3.2.1]octane], the IC50 fell in the range of 0.5 to 3 µM.

The compound `COc1ccccc1-c1csc2nc(N3CCNC(C(N)=O)C3)nc(N3C4CCC3COC4)c12` (centres unmarked) [Example 398, 4-[5-(2-methoxyphenyl)-4-(3-oxa-8-azabicyclo[3.2.1]octan-8-yl)thieno[2,3-d]pyrimidin-2-yl]piperazine-2-carboxamide] came in with an IC50 below 0.5 µM.

For the compound `COCC1CC2CCC(C1)N2c1nc(N2CCNC(=O)C2)nc2scc(-c3ccccc3OC)c12` (centres unmarked) [Example 378, 4-[4-[3-(methoxymethyl)-8-azabicyclo[3.2.1]octan-8-yl]-5-(2-methoxyphenyl)thieno[2,3-d]pyrimidin-2-yl]piperazin-2-one], the IC50 was 0.5 to 3 µM.

`COC1CC2CCC(C1)N2c1nc(N2CCNC(C(N)=O)C2)nc2scc(-c3ccccc3Cl)c12` (centres unmarked) [Example 392, 4-[5-(2-chlorophenyl)-4-(3-methoxy-8-azabicyclo[3.2.1]octan-8-yl)thieno[2,3-d]pyrimidin-2-yl]piperazine-2-carboxamide] returned a half-inhibitory concentration (IC50) below 0.5 µM.

`COc1ccccc1-c1csc2nc(N3C4CCC3CC(O)C4)nc(N3C4CCC3CC(OC)C4)c12` (centres unmarked) [Example 377, 8-[4-(3-methoxy-8-azabicyclo[3.2.1]octan-8-yl)-5-(2-methoxyphenyl)thieno[2,3-d]pyrimidin-2-yl]-8-azabicyclo[3.2.1]octan-3-ol] gave an IC50 of 0.5 to 3 µM.

On to `Clc1ccccc1-c1csc2nc(N3C4CCC3COC4)nc(N3C4CCC3COC4)c12` [Example 423, 8-[5-(2-chlorophenyl)-2-(3-oxa-8-azabicyclo[3.2.1]octan-8-yl)thieno[2,3-d]pyrimidin-4-yl]-3-oxa-8-azabicyclo[3.2.1]octane], for which the IC50 lay within 0.5 to 3 µM.

Compound `COc1ccccc1-c1csc2nc(N3C4CCC3COC4)nc(N3C4CCC3CC(OC)C4)c12` (centres unmarked) [Example 379, 8-[4-(3-methoxy-8-azabicyclo[3.2.1]octan-8-yl)-5-(2-methoxyphenyl)thieno[2,3-d]pyrimidin-2-yl]-3-oxa-8-azabicyclo[3.2.1]octane] registered an IC50 of 0.5 to 3 µM.

Consider `COc1ccccc1-c1csc2nc(N3CCOC(C(N)=O)C3)nc(N3C4CCC3CC(OC)C4)c12` (centres unmarked) [Example 409, 4-[4-(3-methoxy-8-azabicyclo[3.2.1]octan-8-yl)-5-(2-methoxyphenyl)thieno[2,3-d]pyrimidin-2-yl]morpholine-2-carboxamide], for which the IC50 is 0.5 to 3 µM.

`NC(=O)C1CCCN(c2nc(N3C4CCC3COC4)c3c(-c4ccccc4Cl)csc3n2)C1` (centres unmarked) [Example 410, 1-[5-(2-chlorophenyl)-4-(3-oxa-8-azabicyclo[3.2.1]octan-8-yl)thieno[2,3-d]pyrimidin-2-yl]piperidine-3-carboxamide] gave a 50% inhibitory concentration (IC50) of 0.5 to 3 µM.

Regarding `COc1ccccc1-c1csc2nc(N3CCCC(C(N)=O)C3)nc(N3C4CCC3COC4)c12` (centres unmarked) [Example 399, 1-[5-(2-methoxyphenyl)-4-(3-oxa-8-azabicyclo[3.2.1]octan-8-yl)thieno[2,3-d]pyrimidin-2-yl]piperidine-3-carboxamide], the IC50 was 0.5 to 3 µM.

Consider `COc1ccccc1-c1csc2nc(N3CCNC(=O)C3)nc(N3C4CCC3COC4)c12` [Example 403, 4-[5-(2-methoxyphenyl)-4-(3-oxa-8-azabicyclo[3.2.1]octan-8-yl)thieno[2,3-d]pyrimidin-2-yl]piperazin-2-one], for which the IC50 was below 0.5 µM.

Consider `COc1ccccc1-c1csc2nc(N3CCNC(C(N)=O)C3)nc(N3C4CCC3CC(OC)C4)c12` (centres unmarked) [Example 394, 4-[4-(3-methoxy-8-azabicyclo[3.2.1]octan-8-yl)-5-(2-methoxyphenyl)thieno[2,3-d]pyrimidin-2-yl]piperazine-2-carboxamide], for which the IC50 was below 0.5 µM.

`COCC1CC2CCC(C1)N2c1nc(N2C3CCC2CC(O)C3)nc2scc(-c3ccccc3OC)c12` (centres unmarked) [Example 372, 8-[4-[3-(methoxymethyl)-8-azabicyclo[3.2.1]octan-8-yl]-5-(2-methoxyphenyl)thieno[2,3-d]pyrimidin-2-yl]-8-azabicyclo[3.2.1]octan-3-ol] had an IC50 below 0.5 µM.

`COc1ccccc1-c1csc2nc(N3C4CCC3CC(OC)C4)nc(N3C4CCC3COC4)c12` (centres unmarked) [Example 397, 8-[2-(3-methoxy-8-azabicyclo[3.2.1]octan-8-yl)-5-(2-methoxyphenyl)thieno[2,3-d]pyrimidin-4-yl]-3-oxa-8-azabicyclo[3.2.1]octane]: the IC50 was below 0.5 µM.

Regarding `COC1CC2CCC(C1)N2c1nc(N2CCOC(C(N)=O)C2)nc2scc(-c3ccccc3Cl)c12` (centres unmarked) [Example 408, 4-[5-(2-chlorophenyl)-4-(3-methoxy-8-azabicyclo[3.2.1]octan-8-yl)thieno[2,3-d]pyrimidin-2-yl]morpholine-2-carboxamide], the concentration for half-maximal inhibition (IC50) was below 0.5 µM.

`Clc1ccccc1-c1csc2nc(N3CCOCC3)nc(N3C4CCC3COC4)c12` [Example 425, 8-[5-(2-chlorophenyl)-2-morpholino-thieno[2,3-d]pyrimidin-4-yl]-3-oxa-8-azabicyclo[3.2.1]octane] displayed an IC50 below 0.5 µM.

Source of the values: US9290511B2, “Thieno-pyrimidines, useful as potassium channel inhibitors” (XENTION LIMITED, priority 2011, dated 2016).
